Measured values taken from patent US20230257374A1, “NOVEL KRAS G12C PROTEIN INHIBITOR, PREPARATION METHOD THEREFOR, AND USE THEREOF” (INNOVENT BIOLOGICS (SUZHOU) CO., LTD., priority 2019, published 2023).

biological target: T1, KRAS G12C protein (Homo sapiens, UniProt P01116, G12C); assay: ERK protein phosphorylation assay (p-ERK) in H358 cells; type: cell-based; parameters: scale not given here; settings: H358 cells expressing KRAS G12C protein, 3 h incubation with compound; read-out: IC50, inhibiting phosphorylation of KRAS G12C protein-mediated downstream signaling (p-ERK)
T1 construct: H358 cells (ATCC, CRL-5807) expressing KRAS G12C protein; host or cells: H358 (NCI-H358) cells
T1 sequence (P01116 1-188 isoform P01116-2 G12C): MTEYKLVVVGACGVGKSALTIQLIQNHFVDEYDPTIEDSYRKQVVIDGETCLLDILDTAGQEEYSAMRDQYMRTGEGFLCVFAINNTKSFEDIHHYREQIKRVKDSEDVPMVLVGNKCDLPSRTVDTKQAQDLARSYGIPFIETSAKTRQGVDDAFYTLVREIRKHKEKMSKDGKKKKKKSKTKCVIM
Protocol: The cells were cultured in a 5% CO2 cell incubator for 16 h. The serially diluted compound was added to the cell medium with Echo550 at a final DMSO concentration of 0.5%, and the incubation was continued for 3 h. Then 8% paraformaldehyde (Solarbio, P1112) was added at 40 μL/well, followed by incubation at room temperature for 20 min. After one washing with PBS, cold 100% methanol was added at 40 μL/well for permeabilization for 10 min. […] Washing with PBST was performed 3 times, with 2 min of incubation for each washing. […] Washing with PBST was performed 3 times, with 2 min of incubation for each washing. Finally, the cell culture plate was inverted and centrifuged at 1000 rpm for 1 min, after which fluorescence signals were read using Odyssey CLx.

IC50, < 1000 nM:
[2H]C([2H])([2H])c1cccc2cccc(N3CCc4c(nc(OC[C@@H]5CCCN5C([2H])([2H])[2H])nc4N4CCN(C(=O)C=C)C[C@@H]4C)C3)c12 [Compound 24, 1-((S)-3-methyl-4-(7-(8-(methyl-d3)naphthalen-1-yl)-2-(((S)-1-(methyl-d3)pyrrolidin-2-yl)methoxy)-5,6,7,8-tetrahydropyrido[3,4-d]pyrimidin-4-yl)piperazin-1-yl)-2-propen-1-one]
C=CC(=O)N1CCN(c2nc(OC[C@@H]3CCCN3[11CH3])nc3c2CCN(c2cccc4cccc(C)c24)C3)C[C@@H]1CC#N [Compound 25, 2-((S)-1-acryloyl-4-(2-(((S)-1-(methyl-^11C)pyrrolidin-2-yl)methoxy)-7-(8-methylnaphthalen-1-yl)-5,6,7,8-tetrahydropyrido[3,4-d]pyrimidin-4-yl)piperazin-2-yl)acetonitrile]
C=CC(=O)N1CCN(c2nc(OC[C@@H]3CCCN3[13CH3])nc3c2CCN(c2cccc4cccc(C)c24)C3)C[C@@H]1CC#N [Compound 26, 2-((S)-1-acryloyl-4-(2-(((S)-1-(methyl-^13C)pyrrolidin-2-yl)methoxy)-7-(8-methylnaphthalen-1-yl)-5,6,7,8-tetrahydropyrido[3,4-d]pyrimidin-4-yl)piperazin-2-yl)acetonitrile]
[2H]C([2H])([2H])N1CCC[C@H]1COc1nc2c(c(N3CCN(C(=O)C(=C)F)[C@@H](CC#N)C3)n1)CCN(c1cccc3cccc([14CH3])c13)C2 [Compound 29, 2-((S)-1-(2-fluoroacryloyl)-4-(2-(((S)-1-(methyl-d3)pyrrolidin-2-yl)methoxy)-7-(8-(methyl-^14C)naphthalen-1-yl)-5,6,7,8-tetrahydropyrido[3,4-d]pyrimidin-4-yl)piperazin-2-yl)acetonitrile]
[2H]C([2H])([2H])N1CCC[C@H]1COc1nc2c(c(N3CCN(C(=O)C=C)[C@@H](CC#N)C3)n1)CCN(c1cncc3cccc(C)c13)C2 [Compound 30, 2-((S)-1-acryloyl-4-(2-(((S)-1-(methyl-d3)pyrrolidin-2-yl)methoxy)-7-(5-methylisoquinolin-4-yl)-5,6,7,8-tetrahydropyrido[3,4-d]pyrimidin-4-yl)piperazin-2-yl)acetonitrile]
[2H]C([2H])([2H])N1CCC[C@H]1COc1nc2c(c(N3CCN(C(=O)C=C)[C@@H](CC#N)C3)n1)CCN(c1cncc3cccc([13CH3])c13)C2 [Compound 31, 2-((S)-1-acryloyl-4-(2-(((S)-1-(methyl-d3)pyrrolidine-2-yl)methoxy)-7-(5-(methyl-^13C)isoquinolin-4-yl)-5,6,7,8-tetrahydropyrido[3,4-d]pyrimidin-4-yl)piperazin-2-yl)acetonitrile]
[2H]C([2H])([2H])N1CCC[C@H]1COc1nc2c(c(N3CCN(C(=O)C=C)[C@@H](CC#N)C3)n1)CCN(c1cncc3cccc([14CH3])c13)C2 [Compound 32, 2-((S)-1-acryloyl-4-(2-(((S)-1-(methyl-d3)pyrrolidine-2-yl)methoxy)-7-(5-(methyl-^14C)isoquinolin-4-yl)-5,6,7,8-tetrahydropyrido[3,4-d]pyrimidin-4-yl)piperazin-2-yl)acetonitrile]
[2H]C([2H])([2H])CN1CCC[C@H]1COc1nc2c(c(N3CCN(C(=O)C=C)[C@@H](CC#N)C3)n1)CCN(c1cccc3cccc(C)c13)C2 [Compound 33, 2-((S)-1-acryloyl-4-(2-(((S)-1-(ethyl-2,2,2-d3)pyrrolidin-2-yl)methoxy)-7-(8-methylnaphthalen-1-yl)-5,6,7,8-tetrahydropyrido[3,4-d]pyrimidin-4-yl)piperazin-2-yl)acetonitrile]
